Series [1] can be described thus: Determination of the lethal effect (LD50, oral, mouse). Particulars: in vivo, per os, 48 hours observation. The method, then:
The toxicity investigations were carried out on female NMRI mice: body weight 22 to 26 g. The animals received food and water (Altromin®) ad libitum. The substances to be tested were administered orally with the oesophageal sound as solutions of various concentration in a volume of from 10 to 20 ml/kg; 5 animals per dose were kept in Makrolon® cages, Type II. The observation duration was 48 hours. The DL50, the dose with which 50% of the animals died, was determined graphically from the dose effect curve.

Series [2] relates to albino mice. Nature of the series: Hot plate test (analgesia, mouse). The class given is in vivo. Particulars: po, per os; for ED50: dose prolonging reaction time by 50%; for ED40: *ED40 values, read-out: ED40 Hot plate (values marked *). The method, then: (a) Hot plate test: female albino mice were placed on a 50° C. hot plate and the reaction time until they licked their paws was recorded with a stop watch. Normal values lie in the range of from 7 to 8 seconds. The substances tested cause delayed reaction to the heat stimulus, i.e. reduced thermal-pain sensitivity. The dose which prolongs the reaction time by 50% was determined. Literature: Eddy, N. B., and Leimbach, D., J. Pharmacol. Exp. Ther., 107 (1953) 385.
Background: Thermal pain tests record how soon the animal reacts.

In series [3] the test system is albino mice. Briefly: Tail-Flick test (analgesia, mouse). The series is classed as in vivo. Particulars: po, per os, dose prolonging reaction time by 50%. The method, then: (§1) (b) Tail-Flick test: a thermal pain is caused at the tail root of female albino mice or rats with a focused heat ray, and the time until the tail is drawn away is recorded with a stop watch. Normally, it lies in the range of from 4 to 5 seconds. The substances tested cause delayed reaction to the heat pain, i.e. reduced thermal-pain reaction. The dose which prolongs the reaction time by 50% was determined. Literature: D'Amour, F. E., and Smith, D. L., J. Pharmacol. Exp. Ther., 72 (1941) 74.

The subject of series [4] is albino mice. Briefly: Writhing test (acetic acid writhing, analgesia, mouse). Particulars: po, per os; for ED50: dose reducing number of writhings by 50%; for ED40: *ED40 values, read-out: ED40 Writhing (values marked *). The class given is in vivo. The method, then: (c) Writhing test (acetic acid writhing): intraperitoneal injection of 0.2 ml/20 g mouse of a 0.75% strength acetic acid solution induces (in albino mice) a typical syndrome, called writhing, which proceeds over the body with dorsal flection. These writhings, which occur in the course of the first half hour after administration, are counted in the space of time of from 5 to 20 minutes after administration. The substances tested cause a reduction of the number of writhing syndromes. […] Literature: Koster, Anderson, Fed. Proc., 18 (1959) 42.
For orientation: An intraperitoneal irritant provokes the stretching counted in writhing tests.

Another series deals with rats. Briefly: Tail-Flick test (analgesia, rat). Particulars: po, per os, dose prolonging reaction time by 50%. The series is classed as in vivo. The method, then:
as §1

The next series has as its system mice. Briefly: Withdrawal jumping of mice after treatment and intraperitoneal application of naloxone. The class given is in vivo, mouse. The note with it: for % of the animals reacting with "jumping": naloxone intraperitoneal, 3 and 6 given 200 mg/kg twice daily over 5 weekdays, NaCl control 20; for withdrawal jumping after naloxone (in words): 200 mg/kg twice daily over 5 weekdays, naloxone 30 mg/kg i.p. 1 hour after last dose. The method, then: (§2) According to Way et al. [J. Pharmacol. Exp. Ther., 167 (1969) 1] mice, which are dependent on analgesics with a morphine-like effect, react with withdrawal jumping immediately after intraperitoneal administration of naloxone. According to Saelens and co-workers [Arch. Int. Pharmacodyn. […] 2 cannot be tested accordingly because of its toxicity.
(§3) 3 and 6 were administered to mice [200 mg/kg twice daily over 5 weekdays].

For series [5] the following is noted: Saelens et al., Arch. Int. Pharmacodyn. Ther., 190 (1971) 213; cited from earlier work.
Series [6] can be described thus: Withdrawal jumping of mice after treatment and intraperitoneal application of naloxone. The class given is in vivo, mouse. Particulars: mouse, in vivo, not testable for jumping, read-out: lethality in withdrawal jumping test. The method, then: as §2, §3
Series [7] relates to albino mice. Briefly: Tail-Flick test (analgesia, mouse). Particulars: po, per os, *ED40 values, read-out: ED40 Tail-Flick (values marked *). The series is classed as in vivo.

`COc1cccc([C@H](O)C[C@@H]2CCCN2C)c1` (relative stereo) [Compound 4, (R*,S*)-1-(3-methoxyphenyl)-2-(1-methyl-2-pyrrolidinyl)-ethanol]: the LD50 at 48 h in series [1] is 420 mg/kg. In addition, the ED50 with albino mice [2] came out at 100 mg/kg; in the series on albino mice [3], 60 mg/kg; with albino mice [4], 50 mg/kg.
As for `COc1cccc([C@H](O)C[C@H]2CCCN2C)c1` (relative stereo) [Compound 5, (R*,R*)-1-(3-methoxyphenyl)-2-(1-methyl-2-pyrrolidinyl)ethanol], the LD50 at 48 h in series [1] was determined as 490 mg/kg. The figures for the ED50 in the series with albino mice [2], with albino mice [3] and in the series on albino mice [4] were 50 mg/kg, 70 mg/kg and 40 mg/kg, respectively.
As to `Cc1cccc([C@H](O)C[C@@H]2CCCN2C)c1` (relative stereo) [Compound 7, (R*,S*)-1-(3-methylphenyl)-2-(1-methyl-2-pyrrolidinyl)-ethanol], the LD50 at 48 h in [1] was determined as 300 mg/kg. Further, the ED50 in the series on albino mice [2] amounted to 100 mg/kg; in the series on albino mice [3], 50 mg/kg. Besides, in the series on albino mice [4], the ED40 is 75 mg/kg.
As for `Cc1cccc([C@H](O)C[C@H]2CCCN2C)c1` (relative stereo) [Compound 8, (R*,R*)-1-(3-methylphenyl)-2-(1-methyl-2-pyrrolidinyl)-ethanol], the LD50 at 48 h in series [1] was found to be 320 mg/kg. Moreover, the ED40 in the series on albino mice [2] came to 100 mg/kg; with albino mice [4], 75 mg/kg. Besides, in the series on albino mice [3], the ED50 was determined as 10 mg/kg.
`COc1cccc([C@@H](C[C@@H]2CCCN2C)OC(C)=O)c1` (relative stereo) [Compound 13, (R*,S*)-acetic acid-[1-(3-methoxyphenyl)-2-(1-methyl-2-pyrrolidinyl)-ethyl]-ester] registered an LD50 at 48 h in series [1] of 440 mg/kg. In addition, the ED40 with albino mice [4] is 75 mg/kg.
As for `CCC(=O)O[C@](Cc1ccccc1)(c1ccccc1)[C@H](C)CN(C)C` [Compound 1, dextropropoxyphene, reference compound], the LD50 at 48 h in series [1] is 140 mg/kg. Besides, the ED50 stood at 15 mg/kg with albino mice [2], 25 mg/kg with albino mice [3], 30 mg/kg in the series with albino mice [4] and 25 mg/kg in the series on rats. In addition, the “% of the animals reacting with "jumping"” value in the series on mice is reported as 100%. Moreover, the dependence development entry in series [5] was “a dependence development is evidenced”.
Turning to `CN1CCOC(c2ccccc2)c2ccccc2C1` (stereo not drawn) [Compound 2, nefopam, reference compound], in series [1], the LD50 at 48 h is 180 mg/kg. The ED50 with albino mice [2] is 30 mg/kg; in the series on albino mice [3], 20 mg/kg; in the series on albino mice [4], 25 mg/kg; in the series with rats it was 10 mg/kg. In addition, the mortality in series [6] stood at 80%.
Turning to `COc1cccc(C(O)CC2CCCN2C)c1` (stereo not drawn) [Compound 3, 1-(3-methoxyphenyl)-2-(1-methylpyrrolidin-2-yl)-ethanol], the LD50 at 48 h in series [1] was found to be 600 mg/kg. The ED50 came to 30 mg/kg with albino mice [2], 25 mg/kg in the series with albino mice [3], 15 mg/kg in the series on albino mice [4] and 7 mg/kg in the series with rats. Moreover, in the series with mice, the “withdrawal jumping after naloxone (in words)” value is on record as “did not lead to withdrawal jumping”. Further, in the series with mice, the “% of the animals reacting with "jumping"” value was 20%.
As to `Cc1cccc(C(O)CC2CCCN2C)c1` (stereo not drawn) [Compound 6, 2-(1-methylpyrrolidin-2-yl)-1-(3-tolyl)ethanol], in series [1], the LD50 at 48 h was found to be 420 mg/kg. The ED50 came to 100 mg/kg in the series with albino mice [2], 35 mg/kg with albino mice [3], 75 mg/kg in the series with albino mice [4] and 10 mg/kg in the series on rats. Moreover, in the series on mice, the “withdrawal jumping after naloxone (in words)” value is on record as “did not lead to withdrawal jumping”. Moreover, in the series on mice, the “% of the animals reacting with "jumping"” value is 10%.
In [1], `COc1cccc(C(O)CC2CCCN2C(C)C)c1` (stereo not drawn) [Compound 9, 2-(1-isopropyl-2-pyrrolidinyl)-1-(3-methoxyphenyl)ethanol] yielded an LD50 at 48 h of 340 mg/kg. The ED40 was 100 mg/kg in the series on albino mice [2] and 75 mg/kg in the series on albino mice [7]. Also, in the series on albino mice [4], the 50% effect level (ED50) was put at a dose of 75 mg/kg.
`CN1CCCC1CC(O)c1cccc(O)c1` (stereo not drawn) [Compound 10, 1-(3-hydroxyphenyl)-2-(1-methyl-2-pyrrolidinyl)-ethanol] registered an LD50 at 48 h in [1] of 420 mg/kg. In the series on albino mice [4], this compound gave an ED50 of 125 mg/kg.
Compound `CN1CCCC1CC(O)c1cccc(Cl)c1` (stereo not drawn) [Compound 11, 1-(3-chlorophenyl)-2-(1-methyl-2-pyrrolidinyl)-ethanol] returned an LD50 at 48 h in series [1] of 330 mg/kg. The figures for the ED50 with albino mice [3] and in the series with albino mice [4] were 65 mg/kg and 125 mg/kg, respectively.
`CCCCCCN1CCCC1CC(O)c1cccc(OC)c1` (stereo not drawn) [Compound 12, 2-(1-n-hexyl-2-pyrrolidinyl)-1-(3-methoxyphenyl)-ethanol] registered an LD50 at 48 h in series [1] of 180 mg/kg. In the series on albino mice [3], this compound displayed an ED50 of 70 mg/kg. Also, the ED40 in the series with albino mice [4] was determined as 75 mg/kg.

The term LD50 denotes the dose at which mortality reaches 50%. Lower therefore signals a more toxic substance. A word on the ED50: it is the dose that gives a 50% effect, or the effect in half of the subjects.

These data come from patent US4198424A, “Substituted 1-phenyl-2-pyrrolidin-2-yl-ethanols, their synthesis, their use and their compositions” (Byk Gulden Lomberg Chemische Fabrik GmbH, priority 1977, dated 1980).
